Reference: EP4763841A1, “PYRIDAZINONE COMPOUND AND USE THEREOF” (Xi'an Xintong Pharmaceutical Research Co., Ltd., priority 2023, dated 2025)
Like-named read-outs stand apart in the source and are kept apart here.

Key:
THRα = THRα (Homo sapiens, UniProt P10827); assay: HTRF test of agonist-induced SRC3-2 coactivator peptide recruitment to THRα-LBD; assay type: biochemical; conditions: for EC50: HTRF, starting concentration 20 µM, 3-fold dilution, 10 concentrations, duplicate; for agonistic activity on THRα: result in words
THRα, sequence (P10827 148-410 isoform P10827-2 limits assumed, other chains not shown): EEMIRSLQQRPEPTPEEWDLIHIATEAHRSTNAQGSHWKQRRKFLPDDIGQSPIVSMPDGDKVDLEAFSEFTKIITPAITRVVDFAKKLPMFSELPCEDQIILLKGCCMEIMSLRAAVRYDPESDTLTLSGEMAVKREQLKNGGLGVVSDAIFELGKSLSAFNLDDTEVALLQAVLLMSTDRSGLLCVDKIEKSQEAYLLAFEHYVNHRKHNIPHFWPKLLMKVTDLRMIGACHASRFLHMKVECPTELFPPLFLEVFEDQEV
Protocol: (§1) 1. Experiment of binding of compounds to THRβ and THRα
(§2) Test principle: The effect of test compounds on THRβ and THRα was tested by using a method of HTRF. An MAb Anti GST-Eu cryptate antibody binds to GST-tagged THRα-LBD (or THRβ-LBD), while Streptavidin-XL665 binds to a biotin-labeled SRC3-2 coactivator peptide. […] At the same time, the resulting decrease in the distance between XL665-labeled SRC3-2 and an Eu-anti-GST antibody increases a THRFRET signal. The agonistic capacity at this target was assessed by the effect of compounds on the activity of THRα-LBD (THRβ-LBD) at different concentrations.
(§3) • (1) a 1×reaction solution was prepared. • (2) Preparation of compounds: the compound test starting concentration was 20 µM, 3-fold dilution was performed, 10 concentrations were set, and duplicate testing was set for each concentration. 100-fold dilution was performed in a 384-well Source plate to a corresponding solution with a final concentration, and then 200 nL of the solution was transferred to a 384-well reaction plate with Echo550 to be tested. 200 nL of 100% DMSO and a test article were respectively transferred to Min and Max wells. • (3) A 2×protein solution was prepared from the 1×reaction solution. • (4) A 4×SRC3-2 solution was prepared from the 1×reaction solution. • (5) A mixed solution of 4×GST-Eu cryptate and XL665 was prepared from the 1×reaction solution. • (6) 10 µl of the 2×protein solution was added to each well of the reaction plate, centrifugation was performed at 1000 rpm for 1 min, and incubation was performed at room temperature for 30 min. • (7) 5 µl of the 4×SRC3-2 solution was added to each well of the reaction plate, and centrifugation was performed at 1000 rpm for 1 min. • (8) 5 µL of the mixed solution of 4×GST-Eu cryptate and XL665 was added to each well of the reaction plate, centrifugation was performed at 1000 rpm for 1 min, and incubation was performed at 25°C. • (9) A fluorescence signal was read by using EnVision.
THRα test procedures were the same as above.

THRβ = biological target: T1, THRβ (Homo sapiens, UniProt P10828); assay: HTRF test of agonist-induced SRC3-2 coactivator peptide recruitment to THRβ-LBD; assay type: biochemical; conditions: for agonistic activity on THRβ compared with Resmetirom / selectivity of agonistic effect for THRβ over THRα: result in words
T1 sequence (P10828 217-461 limits assumed): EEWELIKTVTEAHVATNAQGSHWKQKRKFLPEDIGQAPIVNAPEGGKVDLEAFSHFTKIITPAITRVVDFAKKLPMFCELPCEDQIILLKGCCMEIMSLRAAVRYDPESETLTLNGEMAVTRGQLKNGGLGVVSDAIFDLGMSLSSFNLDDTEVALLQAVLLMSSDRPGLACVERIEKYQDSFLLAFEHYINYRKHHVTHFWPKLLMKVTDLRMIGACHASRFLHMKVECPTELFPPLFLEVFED
Protocol: as §1, §2
Test method: THRβ test procedures:
as §3

[1] = Comparison of compound metabolites by human liver microsome incubation (LC-MS/MS); assay type: in vitro ADME; conditions: 10 µM compound, human liver microsome 1.0 mg/mL, β-NADPH 1.0 mM, 37°C, 60 min
Protocol: The purpose of this experiment was to evaluate the comparison of the content of major metabolites of human liver microsome incubated compounds.
Sample treatment: a sample was precipitated with acetonitrile (ACN) containing 0.1% formic acid in a ratio of 1:2, and further centrifuged. A supernatant was dried with a nitrogen flow. A residue was reconstituted in […] of 10% ACN and 90% H2O containing 0.1% formic acid. […] of the reconstituted material was injected into an LC-MS/MS system for analysis.

NASH model of B-DIO mice = assay: Efficacy test in NASH model of B-DIO mice (HFD + CCL4); assay type: in vivo
Excerpt: An objective of this experiment was to evaluate the pharmacodynamics of compounds of the present invention by using an NASH model of B-DIO mice.
Five C57BL/6 mice on normal diet were assigned to an experimental group G1, and 25 B-DIO mice were randomly assigned to five experimental groups according to the body weight, with 5 mice in each group.
The day of grouping was Day-1, intraperitoneal injection was started on Day 0 in the groups G2-G6 for CCL4 modeling, the concentration of a modeling agent is 0.2 µl/g, the modeling frequency was twice a week, and administration was started on Day 0.
The body weight was measured twice a week after grouping. At the end of the experiment (Day 26), the mice were fasted for 4 h, and non-anticoagulated blood of the mice in the groups G1-G6 was collected and centrifuged, and a serum was taken for blood biochemical testing. Livers in the groups G1-G6 were collected and weighed, 20 mg of the liver was weighed for determination of TC and TG, and the remaining liver was placed in formalin for fixation for pathological observation.

[2] = In vivo pharmacokinetic study of elimination phase half-life after single IV bolus; set-up: species or system Sprague Dawley rats; conditions: Sprague-Dawley, rat, whole blood, intravenous, I.V bolus, 5 mg/kg, rats, read-out: Elimination phase half-life (T1/2) (converted)
Protocol: Blood samples were collected from animals (IV group) before administration and at time points of 0.083 h, 0.25 h, 0.5 h, 1 h, 2 h, 4 h, 8 h, and 24 h after the end of administration. • Sample treatment: prior to blood collection, a centrifuge tube with 10 µl of EDTA-K2 and 1.2 mL of 50% acetonitrile-DMSO (a volume ratio of whole blood to 50% acetonitrile-DMSO is approximately 1:4) was placed in an ice box filled with crushed ice. The collected blood was added to the centrifuge tube, vortexed for at least 5 min, and then temporarily stored and transported in the ice box filled with crushed ice; and the blood was centrifuged at 12,000 g for 10 min at 4°C, wherein centrifugation was completed within 1 h after blood collection. A whole blood supernatant after centrifugation was transferred to a newly labeled tube, and transferred to -60°C or below for storage for analytical testing.

[3] = HTRF, starting concentration 20 µM, 3-fold dilution, 10 concentrations, duplicate, read-out: THRβ (EC50)
[4] = liver, Day 26, 3 mg/kg I.G. Q.D., HFD+CCL4, mean±standard error

Structure (SMILES)	EC50 (THRβ; [3])	EC50 (THRα)	agonistic activity on THRβ compared with Resmetirom (THRβ)	agonistic activity on THRα (THRα)	selectivity of agonistic effect for THRβ over THRα (THRβ)	also measured
Cc1c(Oc2c(Cl)cc(-n3nc(CF)c(=O)[nH]c3=O)cc2Cl)n[nH]c(=O)c1C(C)C [Compound 16]	11 nM	> 5000 nM	significantly better than that of Resmetirom	weak agonistic activity on THRα	selective agonistic effects on THRβ	Monooxidized metabolite percent content (%) [1]: 9.7%; Monooxidized metabolite percent content (%) ([1]; listed as compound 16): 9.7%
Cc1c(C(C)C)c(Oc2c(Cl)cc(-n3nc(CF)c(=O)[nH]c3=O)cc2Cl)n[nH]c1=O [Compound 17]		> 5000 nM	significantly better than that of Resmetirom	weak agonistic activity on THRα	selective agonistic effects on THRβ	EC50 (THRβ): 46 nM
CC(C)c1cc(Oc2c(Cl)cc(-n3nc(C#N)c(=O)[nH]c3=O)cc2Cl)n[nH]c1=O [Resmetirom, reference compound]						area proportion of lipid droplets in the liver (oil red O) compared with the model group G2 (NASH model of B-DIO mice; G3, 3 mg/kg, Day 26, result in words (FIG. 8)): decreased but no significant difference was seen; liver fibrosis (Sirius red) compared with the model group G2 (NASH model of B-DIO mice; G3, 3 mg/kg, Day 26, result in words (FIG. 9)): certain improvement effects on liver fibrosis; TC (NASH model of B-DIO mice; [4]): 56.44 ± 0.85 µmol/g; TG (NASH model of B-DIO mice; [4]): 74.26 ± 4.34 µmol/g; TG (NASH model of B-DIO mice; serum, Day 26, 3 mg/kg I.G. Q.D., HFD+CCL4, mean±standard error): 1.17 ± 0.06 mM; half-life [2]: 2.98 h

Continued, in another order:

EC50 (THRβ; [3])	Structure (SMILES)	EC50 (THRα)	agonistic activity on THRβ compared with Resmetirom (THRβ)	agonistic activity on THRα (THRα)	selectivity of agonistic effect for THRβ over THRα (THRβ)	also measured
20 nM	[2H]C([2H])([2H])C(c1cc(Oc2c(Cl)cc(-n3nc(CF)c(=O)[nH]c3=O)cc2Cl)n[nH]c1=O)C([2H])([2H])[2H] [Compound 1]	326 nM	significantly better than that of Resmetirom			
22 nM	CC(C)c1cc(Oc2c(Cl)cc(-n3nc(CF)c(=O)[nH]c3=O)cc2Cl)n[nH]c1=O [Compound X1, reference compound]	95 nM				
